Reference: patent US20210301261A1, “HUMAN LIVER MICROPHYSIOLOGY PLATFORM AND SELF ASSEMBLY LIVER ACINUS MODEL AND METHODS OF THEIR USE” (priority 2014, published 2021)
Entries after “also recorded” stand apart in the source; their conditions may differ. Like-named read-outs stand apart in the source and are kept apart here.

Key:
[1] = tested on: liver; details: cited from earlier work
[2] = tested on: hepatocytes in SALA model; test: Oxidative stress response in biosensor transduced hepatocytes in SALA model; type: cell-based, human; details: 0 to 15 hr treatment period
From the text: Image processing at each time point provides kinetic physiological responses is provided in Panel D.

[3] = in vivo; cited from earlier work
[4] = tested on: liver; details: cited from earlier work; for liver injury incidents/million prescriptions: human; for Human/Animal Toxicology (findings in words, wrapped cells): in vivo
[5] = tested on: SALA model cells; details: human
From the text: (§1) Efflux media was collected for measurements of organ model health using assays for lactate dehydrogenase (LDH) release, and albumin, and urea synthesis. LDH is released from cells under conditions of cytotoxic damage. Albumin and urea are secreted from functional hepatocytes. The media efflux was also used to monitor the presence of drug and metabolic products for PK. When compounds are included in the microfluidic media, hepatocytes are exposed to the compound and often biotransform them to a chemically distinct product. Mass spectrometry is a specific and sensitive method to observe these changes. Typically, ca. 15 microliters of media is collected for each biochemical and mass spec measurement (flow rate=5 microliters per hour.)
Troglitazone (28 or 180 μM), or caffeine (600 μM, negative control) was introduced into the microfluidic device for 0-28 days.

[6] = tested on: hepatocyte sentinel cells; test: Statistical validation of biosensors in hepatocyte sentinel cells in microplates; type: cell-based, human; details: 50 μM
From the text: A panel of biosensors was delivered through lentiviral transduction in multiple fluorescent protein colors initially validated in microplates for an acute response. An SSMD level of ≥2 is considered a statistically valid response.

[7] = tested on: hepatocytes in SALA model (bile canalicular efflux, BSEP); test: Bile efflux (CMFDA fluorescence) in SALA model; type: cell-based, human; details: 50 μM
[8] = tested on: LX-2 stellate cells; details: 30 nM
From the text: Day 21 Immunofluorescence images of a SALA liver vehicle treated 21 days, fixed, and reacted against α-Human Collagen type ½ is provided in panel C. […] Nuclei are false colored blue in all images.

[9] = tested on: hepatocytes in SALA model (Cyp3A4 signature metabolite); test: LC-MS of efflux media: metabolic clearance and metabolite production in SALA model; details: 5 μM testosterone in influx media; efflux collected over 24 hr at 5 μl/hr; day 10
From the text: as §1

[10] = tested on: hepatocytes in SALA model; test: Hepatocyte area measured in real-time with cytochrome C biosensor in SALA model; type: cell-based, human
From the text: (§2) Correlation of propidium iodide (PI) uptake with cell area of hepatocytes is illustrated in FIG. 11. The cytochrome C biosensor is used to measure hepatocyte area in order to perform real-time measurements of apoptosis.

[11] = tested on: hepatocytes in SALA model; test: Propidium iodide uptake of hepatocytes in SALA model; type: cell-based, human; details: 200 μM trovafloxacin co-treated with 1 ug/ml LPS, compared to vehicle
From the text: as §2

[12] = tested on: U937 cells; test: TNF-alpha release from LPS activated U937 cells; type: cell-based, human

For `CCc1nn(CCCN2CCN(c3cccc(Cl)c3)CC2)c(=O)n1CCOc1ccccc1` [Nefazodone], the “MOT (wrapped cells)” value [1] is given as “Mitochondrial and ROS and Bile Efflux”, the ROS generation [2] is given as “increase of ROS generation” and the mitochondrial function [2] is given as “decrease in mitochondrial function”. For the same compound, the “oxidative stress in hepatocytes” value [2] was “induces oxidative stress”, the Cmax [3] was 900 nM and the “liver injury incidents/million prescriptions” value [4] was 105 incidents/million incidents/million prescriptions. The “Human/Animal Toxicology (findings in words, wrapped cells)” value (shortened to “Human/Animal Toxicology”) [4] was “Acute hepatitis; also recorded: Centrilobular (zone 3); also recorded: Cholestasis, apoptosis”.

In the case of `CS(=O)(=O)Nc1ccc([N+](=O)[O-])cc1Oc1ccccc1` [Nimesulide], the “LDH leakage, time of peak” value ([5]; 210 μM) is reported as ~5 days.

In the case of `O=c1n(CCCN2CCN(c3cccc(Cl)c3)CC2)nc2ccccn12` [Trazodone], the “MOT (wrapped cells)” value [1] is listed as “No known”, the Cmax [3] is listed as 5000 nM and the “liver injury incidents/million prescriptions” value [4] is listed as 0.21 incidents/million prescriptions. For the same compound, the “Human/Animal Toxicology” value [4] was “extremely rare liver; also recorded: Mild ↑transaminases,”.

For `Cc1c(C)c2c(c(C)c1O)CCC(C)(COc1ccc(CC3SC(=O)NC3=O)cc1)O2` (stereo not drawn) [Troglitazone], the “MOT (wrapped cells)” value [1] is given as “Mitochondrial; also recorded: BSEP inhibitor”, the “SSMD, Bile canalicular efflux (CMFDA)” value [6] is given as 11 and the “release of LDH, time of peak loss” value ([5]; 28 μM) is given as ~13 days. For the same compound, the “release of LDH, time of peak loss” value ([5]; 180 μM) was ~4 days, the “CMFDA dye uptake and efflux in hepatocytes” value ([7]; 10 day treatment, monitored 60 minutes, compared to vehicle) was “slower uptake and inhibition of efflux” and the “hepatocyte retention of dye” value ([7]; at 60 minutes) was “increased hepatocyte retention of dye”. The Cmax [3] was 1800 nM, the “liver injury incidents/million prescriptions” value [4] was “Up to 1000 incidents/million prescriptions” and the “Human/Animal Toxicology” value [4] was “Moderate to severe; also recorded: Variable necrosis,; also recorded: cholestasis,; also recorded: inflammatory”.

With `CN(Cc1cnc2nc(N)nc(N)c2n1)c1ccc(C(=O)N[C@@H](CCC(=O)O)C(=O)O)cc1` [methotrexate] the “expression of collagen type 1A2 protein in LX-2 stellate cells” value ([8]; day 21, relative to vehicle control) was “increased” and the “LX-2 stellate cell division, transmigration and accumulation in hepatocyte layer” value ([8]; over 21 days, compared with vehicle (1.0% DMSO)) was “accelerated rate”.

With `C[C@]12CC[C@H]3[C@@H](CCC4=CC(=O)CC[C@@]43C)[C@@H]1CC[C@@H]2O` [testosterone] the “testosterone exits unchanged through the device (ratio of mass area under the curves)” value [9] was 27%.

With `N[C@@H]1[C@H]2CN(c3nc4c(cc3F)c(=O)c(C(=O)O)cn4-c3ccc(F)cc3F)C[C@@H]12` [trovafloxacin] the hepatocyte area ([10]; 200 μM trovafloxacin alone, day 7) was “decrease in hepatocyte area”, the “cell area of hepatocytes” value ([10]; 200 μM trovafloxacin co-treated with 1 ug/ml LPS, compared to vehicle (1% DMSO)) was “reduction in cell area” and the hepatocyte area ([10]; 200 μM trovafloxacin plus 1 ug/ml LPS, day 5) was “decrease in hepatocyte area”. The “propidium iodide (PI) uptake” value [11] was “increased PI uptake” and the “propidium iodide (PI) uptake” value ([11]; listed as trovofloxacin) was “increase in propidium iodide uptake”.

For Lipopolysaccharide [LPS], the “EC50 of TNF-alpha release” value [12] was 0.7 µg/mL.
